Assay results: patent US20190292189A1, “LIM KINASE INHIBITORS” (VIRONGY, LLC, priority 2016, published 2019)

Tests used:
P450 2D6 = P450 2D6 (Homo sapiens, UniProt P10635); test: P450 inhibition at 10 μM; format: in vitro ADME
PC-3 cells [1] = test: In vitro invasion assay in PC-3 cells; format: cell-based; settings: Homo sapiens, 48 hours, compared to the control
Procedure: Transwell chambers coated with GFR Matrigel (BD Biosciences) were used for measurement of cell invasion. The matrigel was solidified at 37° C. in a humidified incubator the day before the assay. PC3 cells (1×10^3 cells per well) were grown in serum-free RPMI1640 media in the upper side of the insert. The lower well was filled with RPMI 1640 supplemented with 10% FBS with a Limk inhibitor (1 μM). PC3 cells were incubated at 37° C. in a humidified atmosphere containing 5% CO2 for 48 h. Then transwell membrane was rinsed three times with PBS, and the cells were fixed in 2.5% EM grade glutaraldehyde for 15 min at room temperature (RT) with no shaking. After removing glutaraldehyde by aspirating, the cells were permeabilized with 0.5% Triton X-100 in PBS for 3 min at RT, and they were rinsed three times with PBS. Then, the cells were stained by Gill's hematoxylin No. 1 for 15 min at RT, and they were washed by distilled water for three times. To remove any residual stain, the cells were washed by acid alcohol for 3 minutes and then rinsed by distilled water twice. The cells were exposed with 0.04% NH4OH until a blue color is observed on the membrane and then rinsed by distilled water twice. The membranes were dried overnight, and the stained cells were visualized under Leica DMI3000B microscope.

[2] = test system: p-cofilin in PC-3 prostate cancer cell lines; test: Cofilin phosphorylation Western blot in PC-3 cells stimulated by HGF; format: cell-based; settings: HGF-stimulated PC-3 cells; 50 nM
Procedure: PC3 cells were cultured at a density of 0.5×10^6 cells/mL in 60 mm culture dishes in 10% FBS RPMI1640 media. Then, the cells were treated with DMSO and the indicated concentration of Limk inhibitors. After incubating for 24 h, the cells were rinsed with ice-cold PBS twice and collected by spinning down at 4° C. in 10,000 rpm for 5 min Cellular lysates were prepared by suspending cells in SDS sample buffer, 120 mmol/L Tris, 4% SDS, 20% glycerol, 0.1 mg/mL bromophenol blue, and 100 mmol/L DTT (pH 6.8). After brief sonication, the lysates were heated at 95° C. for 5 minutes. The cell lysates were separated by 12% SDS-PAGE and transferred to Immobilon-P membranes (Millipore Corp) Immunostaining was done using antibodies specific for phospho-Cofilin (Cell Signaling, #3313) and β-Actin (GeneScript, #A00702) antibodies and the corresponding second antibodies for whole immunoglobulins from mouse or rabbit (Amersham Biosciences). Immunoreactive proteins were detected by chemoluminescence using the Pierce ECL Western Blotting Substrate (Thermo Scientific). We quantified the actual levels of proteins by using the Multigauge ver 3.0 software (Fujifilm). The gels were stained with Coomassie Brilliant Blue R-250 (0.25%) for 1 hour and then destained (all solutions from Bio-Rad) to check the loading amount of protein samples on the gels.

PC-3 cells [3] = test: In vitro migration (wound closure) assay in PC-3 cells; format: cell-based; settings: Homo sapiens, PC-3, 24 hours, compared to the control, read-out: inhibition of migration of PC-3 cells
Procedure: PC3 cells were cultured to confluence at >90% in 6 well culture dishes in 10% FBS RPMI1640 media the day before the assay. Lines were drawn with a marker on the bottom of the dishes. Using a sterile 1 mL pipet tip, the dishes were scratched three separate wounds through the cells moving perpendicular to the line drawn in the step above. The cells were rinsed with PBS twice very gently and added the RPMI1640 media, and the dishes were taken pictures using phase contrast under Leica DMI3000B microscope.

EBOV (Zaire ebolavirus) = format: cell-based; settings: HFF-1 cells
Rev-CEM-GFP-Luc = settings: all concentrations tested (up to 200 μM)
[4] = test system: cofilin serine 3 phosphorylation in CEM-SS T cells; test: Western blot of cofilin serine 3 phosphorylation in CEM-SS T cells (time course); format: cell-based, human; settings: 100 μM
Procedure: (§1) FIG. 10. Chemical and Biochemical characterization of R10015. a, Chemical structure of R10015 and its docking into the crystal structure of LIMK1 (PDB ID 3S95, Chain A). […] CEM-SS T cells treated with R10015 (100 μM) for a time course, and the phosphorylation of cofilin, LIMK, and PAK1/2 were measured by Western Blot. Levels of each protein or GAPDH were also measured for loading control. d, R10015 inhibits Jurkat T cell chemotaxis in responding to SDF-1. e, R10015. f, R10015 inhibits chemotactic actin activity. Resting CD4 T cells were treated with R10015, and then exposed to SDF-1 for a time course. Actin polymerization were measured by FITC-phalloidin staining. g, the relative intensity of F-actin staining was also plotted.
(§2) One million cells were lysed in NuPAGE LDS Sample Buffer (Invitrogen), separated by SDS-PAGE, and then transferred onto nitrocellulose membranes (Invitrogen). The membranes were washed in TBST for 3 min and then blocked for 30 min at room temperature with Starting Block blocking buffer (Pierce). For probing with different antibodies, blots were incubated with rabbit anti-LIMK1 antibodies (Cell Signaling), with rabbit anti-p-coflin antibodies (Cell Signaling) or with a mouse anti-PAK1/2 antibody (Cell Signaling). These antibodies were diluted in 2.5% milk/TBST and rocked overnight at 4° C. […]

[5] = test system: single-cycle HIV-1(Env) in CEM-SS T cells; format: cell-based; settings: all time points
[6] = test system: single-cycle HIV-1(Env) in CEM-SS T cells; test: Viral 2-LTR circles, real-time PCR; format: cell-based
resting CD4 T cells = test: Surface staining of CD25 and CD69 (T cell activation); format: cell-based, human; settings: CD3/CD28 beads
[7] = test system: HIV-1 viral entry in CEM-SS T cells; test: Viral entry assays (BlaM-Vpr, Nef-luciferase); format: cell-based; settings: HIV-1 Vpr-β-lactamase or Nef-luciferase tagged virions
phosphorylation of LIMK = test: Western blot of LIMK phosphorylation in CEM-SS T cells; format: cell-based, human
Procedure: as §1, §2

HIV-1(Env) = test: Virion release, p24 in supernatant; format: cell-based
[8] = test system: HSV-1 (Herpes simplex virus); format: cell-based; settings: Vero cells

Sequence of P450 2D6 (P10635 whole entry): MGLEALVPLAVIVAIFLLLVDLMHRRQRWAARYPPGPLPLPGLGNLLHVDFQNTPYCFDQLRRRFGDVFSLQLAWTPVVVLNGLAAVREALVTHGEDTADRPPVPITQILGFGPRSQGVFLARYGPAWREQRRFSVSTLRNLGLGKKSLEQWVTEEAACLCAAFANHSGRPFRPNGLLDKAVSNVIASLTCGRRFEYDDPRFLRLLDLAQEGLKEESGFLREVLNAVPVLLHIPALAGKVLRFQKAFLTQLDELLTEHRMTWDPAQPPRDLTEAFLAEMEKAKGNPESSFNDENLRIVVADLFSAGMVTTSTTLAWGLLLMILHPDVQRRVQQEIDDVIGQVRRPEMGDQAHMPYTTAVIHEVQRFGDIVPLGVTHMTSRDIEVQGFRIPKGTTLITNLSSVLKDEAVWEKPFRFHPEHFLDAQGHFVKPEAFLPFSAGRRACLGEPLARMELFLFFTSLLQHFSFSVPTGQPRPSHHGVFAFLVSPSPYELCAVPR

Row | SMILES | P450 % inh. at 10 μM 2D6 (P450 2D6) [%] | inhibition at 1 µM (PC-3 cells [1]) [%] | inhibition of cofilin phosphorylation in PC-3 cells (Western blot) [2] | inhibition at 0.1 µM (PC-3 cells [3]; 0.1 μM) [%] | inhibition at 1 µM (PC-3 cells [3]; 1 μM) [%] | inhibition at 10 µM (PC-3 cells [3]; 10 μM) [%] | EBOV infection (EBOV (Zaire ebolavirus)) | cytotoxicity (Rev-CEM-GFP-Luc) | cofilin serine 3 phosphorylation [4] | viral DNA synthesis [5] | viral nuclear migration (2-LTR circles) [6] | T cell activation (CD25 and CD69 surface staining) (resting CD4 T cells) | viral entry [7] | phosphorylation of LIMK (phosphorylation of LIMK) | viral release (HIV-1(Env)) | HSV-1 infection [8]
1 | Cc1c[nH]c2ncnc(-c3ccc(NC(=O)N(CCO)c4ccccc4)cc3)c12 [Compound 18b, 1-(2-Hydroxyethyl)-3-(4-(5-methyl-7H-pyrrolo[2,3-d]pyrimidin-4-yl)phenyl)-1-phenylurea] | 5 | 76 | significant inhibition | 16.5 | 74 | 77.5 | – | – | – | – | – | – | – | – | – | –
2 | COC(=O)c1ccc2[nH]c(C3CCN(c4ncnc5[nH]cc(Cl)c45)CC3)nc2c1 [Compound R10015, Methyl 2-(1-(5-chloro-7H-pyrrolo[2,3-d]pyrimidin-4-yl)piperidin-4-yl)-1Hbenzo[d]imidazole-5-carboxylate] | – | – | – | – | – | – | inhibited | no detectable cytotoxicity | drastic inhibition | inhibited | inhibited | did not inhibit T cell activation | did not significantly inhibit | did not inhibit | inhibited | inhibited
